Measured values: patent US12234211B2, “Cycloolefin substituted heteroaromatic compounds and their use” (HUTCHISON MEDIPHARMA LIMITED, priority 2017, dated 2025)

How the values were obtained:
IDH2-R140Q = target: T1, IDH2-R140Q (Homo sapiens, UniProt P48735, R140Q); assay: Fluorescent determination of IDH2-R140Q cell activity (2-HG in U87MGR140Q cells); assay type: cell-based; conditions: 72 hours incubation, read-out: IC50 (2-HG inhibition)
T1 construct: expressed in transfected cells
T1 sequence (P48735 40-452 R140Q): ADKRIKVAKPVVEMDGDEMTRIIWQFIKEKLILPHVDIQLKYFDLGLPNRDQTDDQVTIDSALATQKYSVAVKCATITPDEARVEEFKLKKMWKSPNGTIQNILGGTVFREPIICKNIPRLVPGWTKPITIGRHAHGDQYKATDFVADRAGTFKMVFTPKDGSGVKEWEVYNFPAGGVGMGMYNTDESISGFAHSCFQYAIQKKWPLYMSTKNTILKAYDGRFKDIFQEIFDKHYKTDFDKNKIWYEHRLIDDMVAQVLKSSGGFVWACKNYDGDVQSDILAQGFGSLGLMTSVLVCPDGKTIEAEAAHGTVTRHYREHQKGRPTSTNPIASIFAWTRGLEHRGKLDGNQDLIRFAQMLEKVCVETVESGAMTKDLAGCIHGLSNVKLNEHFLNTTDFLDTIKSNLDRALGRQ
Procedure: Enzyme reaction solution: 1 mM nicotinamide adenine dinucleotide (NAD), 0.6 ng/μL D-2-hydroxyglutarate dehydrogenase (D2HGDH), 0.8 U/mL lipoamidase dehydrogenase (Diaphorase) and 60 μM Resazurin in 40 mM Tris.HCl pH 8.8 assay buffer.
Standard curve stock solution: The standard of 2-HG sodium salt was serially diluted in serum-free MEM medium to make a standard curve stock solution.
100 μL of U87MGR140Q cells were seeded at a density of 6×10^4/mL per well in a 96-well plate a.
From each well of 96-well plate a, 50 μL of the culture supernatant was transferred to the corresponding well of 96-well plate b; at the same time, 50 μL of standard curve stocking solution was added to other wells of 96-well plate b. Then 10 μl of 360 mM hydrochloric acid was added to all the wells. After shaking and mixing, the plate was placed on ice for 10 minutes, and then 10 μl of 420 mM Tris-base was added. After shaking and mixing, the plate was placed on ice for additional 5 minutes. Then the plate was centrifuged at 2500 rpm for 10 minutes.
After centrifuging, from each well of 96-well plate b, 20 μL of the supernatant was transferred to 96-well plate c. An additional 80 μL of the enzyme reaction solution was added to each well and incubated at 25° C. for 90 minutes.
A standard curve of the fluorescence value vs. the corresponding 2-HG concentration was made, and the 2-HG concentration corresponding to each concentration point of the compound was calculated, then the inhibition ratio was calculated, and the data was analyzed using XLfit5 (ID Business Solutions Limited) software to obtain the IC50 value.
The inhibition ratio was calculated as follows: Inhibition Ratio (IH %)=(1-2-HG concentration of test compound treated cells/2-HG concentration of control cells)×100%.

IDH1-R132H = target: T2, IDH1-R132H (Homo sapiens, UniProt O75874, R132H); assay: Fluorescent determination of IDH1-R132H cell activity (2-HG in U87MGR132H cells); assay type: cell-based; conditions: 2-HG inhibition in U87MGR132H cells transfected with IDH1-R132H mutant plasmid
T2 construct: expressed in transfected cells; host or cells: U87MG cells (U87MGR132H)
T2 sequence (O75874 whole entry R132H): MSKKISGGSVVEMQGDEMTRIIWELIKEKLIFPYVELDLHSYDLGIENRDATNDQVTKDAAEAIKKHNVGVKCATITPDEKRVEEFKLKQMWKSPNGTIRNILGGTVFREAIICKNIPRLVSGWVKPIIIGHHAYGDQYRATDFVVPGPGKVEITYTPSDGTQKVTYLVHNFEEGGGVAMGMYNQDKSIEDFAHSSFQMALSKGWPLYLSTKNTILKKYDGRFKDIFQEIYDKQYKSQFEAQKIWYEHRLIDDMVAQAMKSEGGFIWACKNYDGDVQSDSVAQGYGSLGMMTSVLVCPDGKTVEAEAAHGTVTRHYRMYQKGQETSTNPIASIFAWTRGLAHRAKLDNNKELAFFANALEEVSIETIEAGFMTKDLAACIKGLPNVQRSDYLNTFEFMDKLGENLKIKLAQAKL

Structure (SMILES) | IC50 (IDH2-R140Q) | IC50 (IDH1-R132H)
C[C@@H](Nc1nc(N[C@H](C)C(F)(F)F)nc(C2=C(F)C(O)C(Cl)CC2)n1)C(F)(F)F (mixture of isomers) [Compound 99, 3-(4,6-Bis(((R)-1,1,1-trifluoropropan-2-yl)amino)-1,3,5-triazin-2-yl)-6-chloro-2-fluoro-cyclohex-2-en-1-ol] | 553 nM | 938 nM
C[C@H](Nc1nc(NC2CC2)nc(C2=C(F)C(O)C(F)(F)CC2)n1)C(F)(F)F (mixture of isomers) [Compound 260] | 94 nM | > 10000 nM
C[C@@H](Nc1nc(NC(C)(C)C)nc(C2=CC(O)CCC2)n1)C(F)(F)F (mixture of isomers) [Compound 155] | 319 nM | 2240 nM
[2H]C1(O)C(F)=C(c2nc(NC3CC3)nc(N[C@@H](C)C(F)(F)F)n2)CCC1(F)F (mixture of isomers) [Compound 278] | 148 nM | > 10000 nM
C[C@@H](Nc1nc(NCC2CC2)nc(C2=C(F)C(O)C(F)(F)CC2)n1)C(F)(F)F (stereo partly drawn) [Compound 234, 3-(4-((Cyclopropylmethyl)amino)-6-(((R)-1,1,1-trifluoropropan-2-yl)amino)-1,3,5-triazin-2-yl)-2,6,6-trifluorocyclohex-2-en-1-ol] | 78 nM | 1760 nM
CCCNc1nc(N[C@H](C)C(F)(F)F)nc(C2=C(F)C(O)C(F)(F)CC2)n1 (mixture of isomers) [Compound 210] | 93 nM | 4340 nM
[2H]C1(O)C=C(c2nc(N[C@H](C)C(F)(F)F)nc(N[C@H](C)C(F)(F)F)n2)CCC1(F)F (mixture of isomers) [Compound 282] | 343 nM | 444 nM
C[C@@H](Nc1nc(NC2CC3(CCC3)C2)nc(C2=C(F)C(O)CCC2)n1)C(F)(F)F (mixture of isomers) [Compound 159] | 205 nM | 2720 nM
CCCNc1nc(N[C@H](C)C(F)(F)F)nc(C2=C(F)C(O)[C@@H](F)CC2)n1 (stereo partly drawn) [Compound 231] | 37 nM | 1530 nM
C[C@@H](Nc1nc(N[C@H](C)C(F)(F)F)nc(C2=CC(O)C(F)(F)CC2)n1)C(F)(F)F (mixture of isomers) [Compound 281] | 690 nM | 455 nM
C[C@@H](Nc1nc(N[C@H](C)C(F)(F)F)nc(C2=C(F)C(=O)C(F)(F)CC2)n1)C(F)(F)F [Compound 296] | 423 nM | 1140 nM
CONc1nc(N[C@H](C)C(F)(F)F)nc(C2=C(F)C(O)C(F)(F)CC2)n1 (mixture of isomers) [Compound 297, 2,6,6-Trifluoro-3-(4-(methoxyamino)-6-(((R)-1,1,1-trifluoropropan-2-yl)amino)-1,3,5-triazin-2-yl)cyclohex-2-en-1-ol] | 2660 nM | > 10000 nM
C[C@@H](Nc1nc(N[C@H](C)C(F)(F)F)nc(C2=C(F)C(O)C(F)(F)CC2)n1)C(F)(F)F (single isomer, unassigned) [Compound 198] | 845 nM | 1890 nM
CC(C)Nc1nc(NC2CC(F)(F)C2)nc(C2=C(F)C(O)C(F)(F)CC2)n1 (stereo not drawn) [Compound 261] | 94 nM | 2230 nM
C[C@H](Nc1nc(N[C@H](C)C(F)(F)F)nc(C2=C(F)C(O)C(F)(F)CC2)n1)C(F)(F)F (stereo partly drawn) [Compound 277] | 156 nM | 1030 nM
C[C@@H](Nc1nc(NCC2CC2)nc(C2=C(F)C(O)C(F)(F)CC2)n1)C(F)(F)F (mixture of isomers) [Compound 209] | 78 nM | 1760 nM
C[C@H](Nc1nc(N[C@@H](C)C(F)(F)F)nc(C2=C(F)C(O)C(F)(F)CC2)n1)C(F)(F)F (mixture of isomers) [Compound 283] | 174 nM | 1320 nM
C[C@@H](Nc1nc(N[C@H](C)C(F)(F)F)nc(C2=C(F)C(O)C(F)CC2)n1)C(F)(F)F (stereo partly drawn) [Compound 268, 3-(4,6-Bis(((R)-1,1,1-trifluoropropan-2-yl)amino)-1,3,5-triazin-2-yl)-2,6-difluorocyclohex-2-en-1-D-1-ol] | 349 nM | 939 nM
CC(C)Nc1nc(N[C@H](C)C(F)(F)F)nc(C2=C(F)C(O)C(F)(F)CC2)n1 (stereo partly drawn) [Compound 244] | 53 nM | 1080 nM

Results, then the compound that gave them:

IC50 (IDH2-R140Q) | IC50 (IDH1-R132H) | Structure (SMILES)
99 nM | 3570 nM | CCCNc1nc(N[C@H](C)C(F)(F)F)nc(C2=C(F)C(O)CCC2)n1 (stereo partly drawn) [Compound 81]
2370 nM | > 10000 nM | CC(C)(O)CNc1nc(Nc2ccn3nccc3c2)nc(C2=C(F)C(O)CCC2)n1 (stereo not drawn) [Compound 67]
62 nM | 8020 nM | CC(C)(C)ONc1nc(Nc2ccnc(C(F)(F)F)c2)nc(C2=C(F)C(O)C(F)(F)CC2)n1 (stereo not drawn) [Compound 275]
216 nM | 1220 nM | C[C@H](Nc1nc(N[C@H](C)C(F)(F)F)nc(C2=C(F)C(O)CCC2)n1)C1CC1 (mixture of isomers) [Compound 8]
106 nM | 1300 nM | C[C@@H](Nc1nc(NCC(F)(F)F)nc(C2=C(F)C(O)CCC2)n1)C(F)(F)F (stereo partly drawn) [Compound 79]
64 nM | > 10000 nM | CC(C)(C)ONc1nc(Nc2ccnc(F)c2)nc(C2=C(F)C(O)CCC2)n1 (stereo not drawn) [Compound 73]
99 nM | 234 nM | C[C@@H](Nc1nc(N[C@H](C)C(F)(F)F)nc(C2=C(F)C(O)CCCC2)n1)C(F)(F)F (mixture of isomers) [Compound 21]
373 nM | 2080 nM | C[C@@H](Nc1nc(NCC2CC(F)(F)C2)nc(C2=C(F)C(O)CCC2)n1)C(F)(F)F (mixture of isomers) [Compound 13]
803 nM | > 10000 nM | Cc1nccc(Nc2nc(NOC(C)(C)C)nc(C3=C(F)C(O)CCC3)n2)n1 (stereo not drawn) [Compound 205]
125 nM | 6040 nM | CC(C)Nc1nc(NC2CC(F)(F)C2)nc(C2=C(F)C(O)CCC2)n1 (stereo not drawn) [Compound 51]
141 nM | 4350 nM | C[C@H](Nc1nc(N[C@H](C)C(F)(F)F)nc(C2=C(F)C(O)CCC2)n1)c1ccccc1 (mixture of isomers) [Compound 157]
1500 nM | > 10000 nM | CC(C)(O)CNc1nc(Nc2ccc3sncc3c2)nc(C2=C(F)C(O)CCC2)n1 (stereo not drawn) [Compound 199]
108 nM | > 10000 nM | CC(C)(C)ONc1nc(Nc2ccnc(C(F)(F)F)n2)nc(C2=C(F)C(O)C(F)(F)CC2)n1 (stereo not drawn) [Compound 214]
57 nM | 2960 nM | [2H]C1([2H])CCC(c2nc(NOC(C)(C)C)nc(Nc3ccnc(C(F)(F)F)c3)n2)=C(F)C1O (stereo not drawn) [Compound 89]
81 nM | 8370 nM | [2H]C1(O)C(F)=C(c2nc(NOC(C)(C)C)nc(Nc3ccnc(C(F)(F)F)c3)n2)CCC1(F)F (stereo not drawn) [Compound 276]
59 nM | 5640 nM | CC(C)(C)ONc1nc(Nc2ccnc(Cl)c2)nc(C2=C(F)C(O)CCC2)n1 (stereo not drawn) [Compound 47]
69 nM | 1410 nM | CC(C)CNc1nc(N[C@H](C)C(F)(F)F)nc(C2=C(F)C(O)CCC2)n1 (stereo partly drawn) [Compound 78]
180 nM | 1350 nM | C[C@@H](Nc1nc(NC2CCCC2(F)F)nc(C2=C(F)C(O)CCC2)n1)C(F)(F)F (mixture of isomers) [Compound 166]
327 nM | 3170 nM | CC(C)[C@H](C)Nc1nc(N[C@H](C)C(F)(F)F)nc(C2=C(F)C(O)CCC2)n1 (mixture of isomers) [Compound 167]
34 nM | 7440 nM | CC(C)Nc1nc(Nc2ccnc(F)c2)nc(C2=C(F)C(O)CCC2)n1 (stereo not drawn) [Compound 74]
